These results are taken from patent US10406120B2, “Methods and compositions for treating kidney disorders” (Golden Biotechnology Corporation, priority 2013, dated 2019).

Molecules are shown by their SMILES.

Common to all, as to type: in vivo, B cell-deficient mice
In one data set the test system is MCP-1. Description: AcP-IgAN model: serum MCP-1 ELISA. As to conditions: AcP-IgAN mice, day 3 until day 28, vs control AcP-IgAN mice; only baseline levels. Here is the method:
(§1) B cell-deficient mice (B6.129S2-Igh-6tm1Cgn/J) were obtained from the Academia Sinica (Professor John T. Kung, Institute of Molecular Biology), and maintained at the animal center of the National Defense Medical Center, Taipei, Taiwan. AcP-IgAN was induced in the mice by daily injection of purified IgA anti-phosphorylcholine antibodies and pneumococcal C-polysaccharide (PnC) as described previously (Chao, et al., Kidney Int. 70:283-297; 2006). All animal experiments were performed with the approval of the Institutional Animal Care and Use Committee of The National Defense Medical Center, Taiwan, and were consistent with the NIH Guide for the Care and Use of Laboratory Animals.
(§2) Serum levels of IL-1β (eBiosceience, CA), IL-6 (eBiosceience), IL-18 (MBL, Japan), and MCP-1 (eBiosceience) were measured using commercial ELISA kits according to the manufacturer's instructions.

The subject of the next data set is TGF-β1. Briefly: AcP-IgAN model: renal TGF-β1 mRNA and protein. As to conditions: AcP-IgAN mice. Here is the method:
as §1
(§3) For IHC, formalin fixed and paraffin embedded tissue sections or frozen sections were incubated with against IL-6 (R&D Systems, MN), MCP-1 (Santa Cruz, Calif.), F4/80 (monocytes/macrophages; Serotec, N.C.), collagen IV (Southern Biotech, AL), TGF-β1 (Santa Cruz), phopsho-NFκB p65 (Cell Signaling, MA), CD3 (pan-T cell; Serotec), CD4 (T helper cell; BioLegend, CA), CD8 (cytotoxic T cell), CD11b (macrophages/neutrophils), or CD11c (dendritic cells) (BD Biosciences, CA) antibodies. The FITC-conjugated, Alexa Fluor 488-conjugated (Invitrogen, CA) or horseradish peroxidase (HRP) conjugated secondary antibodies (DAKO, Denmark) were then applied to the sections. Hematoxylin or 4′,6-diamidino-2-phenylindole (DAKO) was used in the counter staining for nuclei.
(§4) Total cortical kidney RNA was extracted with TriZOL reagents (Invitrogen) from cortical tissue of the kidney. For first-strand cDNA synthesis, 1.5 μg of total RNA was used in a single-round reverse transcriptase reaction. The reaction mixture consisted of 0.9 μl of Oligo (dT) 12 to 18 primer, 1.0 mM deoxyribonucleotide triphosphate (dNTP), 1 μl first strand buffer, 0.4 mM dithiothreitol, 80 U of RNaseout recombinant ribonuclease inhibitor, and 300 U of superscript II RNase H (Invitrogen). Real-time PCR was performed on an ABI Prism 7700 Sequence Detection System (Applied Biosystems, CA). […]

The subject of data set [1] is glutathione peroxidase (GPx). Description: AcP-IgAN model: renal GPx. As to conditions: AcP-IgAN mice. The protocol:
as §1
Nuclear proteins were extracted using a nuclear extract kit (Active Motif, Japan). Phospho-NF-κB p65 and nuclear factor-erythroid-2-related factor 2 (NrF2) were measured in renal tissue nuclear protein extracts using Trans-AM ELISA assay kits (Active Motif), according to the manufacturer's instructions. Renal cytosolic protein extracts using RIPA buffer (Cell signaling). Cytosolic glutathione peroxidase (GPx) (Cayman, Mich.) and cytosolic heme oxygenase-1 (HO-1) (Enzo Life Sciences, NY) were measured using commercial ELISA kits according to the manufacturer's instructions. Both were expressed relative to the protein concentration in the lysate.

The test system of another data set is IL-6. Description: AcP-IgAN model: serum IL-6 ELISA. As to conditions: AcP-IgAN mice. Here is the method: as §1, §2
The test system of a further data set is caspase-1. Description: AcP-IgAN model: renal caspase-1 mRNA and protein. As to conditions: AcP-IgAN mice. The protocol: as §1
Total cortical kidney RNA was extracted with TriZOL reagents (Invitrogen) from cortical tissue of the kidney. For first-strand cDNA synthesis, 1.5 μg of total RNA was used in a single-round reverse transcriptase reaction. The reaction mixture consisted of 0.9 μl of Oligo (dT) 12 to 18 primer, 1.0 mM deoxyribonucleotide triphosphate (dNTP), 1 μl first strand buffer, 0.4 mM dithiothreitol, 80 U of RNaseout recombinant ribonuclease inhibitor, and 300 U of superscript II RNase H (Invitrogen). […]
Each protein sample was run on a 10% SDS-PAGE gel. […] The membrane-bound antibody detected was incubated with chemiluminescent reagent plus (PerkinElmer Life Sciences, MA) and captured on x-ray film.

The nature of data set [2]: AcP-IgAN model: urine protein and renal function (BUN, Cr). As to conditions: AcP-IgAN mice. Here is the method:
as §1
(§5) Body weight of the mice was measured weekly. Urine samples were collected in metabolic cages weekly, and urine protein determined followed the know methods (Chao, et al., Kidney Int. 70:283-297; 2006). Serum samples were collected at day 3 and day 28 to measure serum levels of blood urea nitrogen (BUN) and creatinine (Cr).

Data set [3] can be described thus: AcP-IgAN model: renal histopathology. As to conditions: AcP-IgAN mice. The protocol:
as §1
For renal histopathology, the tissues were fixed in 10% buffered formalin and embedded in paraffin, and then sections (4 μm) were prepared and stained with hematoxylin and eosin (H&E). The proportion of glomeruli showing proliferation, crescent formation, sclerosis, or peri-glomerular inflammation was counted in 50 randomly sampled glomeruli by light microscopy at the magnification of 400×.

Data set [4] is described as follows: AcP-IgAN model: body weight and general condition. As to conditions: AcP-IgAN mice, 50 mg/kg, up to day 28. The protocol: as §1, §5
The next data set concerns Col-IV. Briefly: AcP-IgAN model: renal Col-IV mRNA and protein. As to conditions: AcP-IgAN mice. Here is the method:
as §1, §3, §4

[5] abbreviates: day 28, vs control AcP-IgAN mice.
Where [6] appears, read: day 3, vs control AcP-IgAN mice.
[7] abbreviates: day 3, between control AcP-IgAN, AcP-IgAN+Antroq and normal control mice.

As to `COC1=C(OC)[C@H](O)[C@H](C/C=C(\C)CC/C=C(\C)CCC=C(C)C)[C@@H](C)C1=O` [Compound 1, Antroquinonol], the “serum levels of MCP-1 (elevation)” value in the data set with MCP-1 is “greatly inhibited”. Further, the “renal mRNA levels of TGF-β1” value in the data set on TGF-β1 (day 3) is reported as “basal mRNA levels”. In addition, in the data set on TGF-β1 (setting [5]), the “TGF-beta protein levels in kidney (IHC)” value was “substantially inhibited” and the “renal mRNA expression of TGF-β1” value is on record as “greatly inhibited”. Also, the “GPx expression levels in renal tissues” value in data set [1] (setting [6]) is on record as “no difference”. In addition, the “GPx expression levels in renal tissues” value in [1] (setting [5]) is “significantly higher”. Further, the “serum IL-6 levels” value in the data set on IL-6 (setting [7]) is “no difference”. Moreover, in the data set on IL-6 (setting [5]), the “serum levels of IL-6” value is on record as “substantially decreased”. In the data set on caspase-1 (both day 3 and day 28, vs control AcP-IgAN mice), the “renal increase in caspase-1 protein levels” value is “greatly inhibited”. For the same compound, in the data set with caspase-1 (day 3 until day 28, real-time PCR), the “renal mRNA expression levels of caspase-1 (elevation)” value is reported as “greatly inhibited”. Moreover, the urine protein levels result in data set [2] (50 mg/kg, day 7 to day 28, vs control AcP-IgAN mice (vehicle)) is “greatly suppressed”. Besides, in data set [2] (compared to normal controls), the proteinuria entry was “mild proteinuria”. Further, in data set [2] (setting [7]), the “serum levels of BUN” value was “no significant difference” and the “serum levels of Cr” value is given as “no significant difference”. Further, in data set [2] (setting [5]), the “serum levels of BUN” value is “much better renal function” and the “serum levels of creatinine” value was “much better renal function”. Also, the renal histopathology result in data set [3] (setting [6]) was “significantly inhibited”. Moreover, the “renal lesions (proliferation, crescents, sclerosis, peri-glomerular leukocyte infiltration, tubular atrophy; except glomerular immune deposits)” value in [3] (setting [5]) is “substantially inhibited”. For the same compound, in data set [4], the “activity, hair loss, appetite” value is “normal activity and no evidence of hair loss or appetite change”; the “growth (body weight recorded every week)” value was “no different from that of normal controls”. Further, the “renal mRNA levels of Col-IV” value with Col-IV (day 3) is given as “basal mRNA levels”. In addition, in the data set with Col-IV (setting [5]), the “Col-IV protein levels in kidney (IHC)” value is reported as “substantially inhibited” and the “renal mRNA expression of Col-IV” value is “greatly inhibited”.
